molecular target: T1, rat mGluR5 (Rattus norvegicus, UniProt P31424); test: mGluR5 calcium flux assay in HEK 293A cells, negative allosteric modulation of glutamate EC80 response; assay type: cell-based; conditions: HEK cells transfected with rat mGluR5; glutamate EC80; ± is standard error of at least three experiments
T1 construct: expressed in transfected cells
Description: HEK 293A cells stably expressing either rat or human mGluR5 were plated in black-walled, clear-bottomed, poly-D-lysine coated 384-well plates in 20 μL of assay medium (DMEM containing 10% dialyzed FBS, 20 mM HEPES, 100 units/mL penicillin/streptomycin plus 250 ng/mL Fungizone, and 1 mM sodium pyruvate) at a density of 20K cells/well. The cells were grown overnight at 37° C. in the presence of 5% CO2. The next day, medium was removed and the cells incubated with 20 μL of 2.3 µM Fluo-4, AM prepared as a 2.3 mM stock in DMSO and mixed in a 1:1 ratio with 10% (w/v) pluronic acid F-127 and diluted in assay buffer (Hank's balanced salt solution, 20 mM HEPES, and 2.5 mM probenecid) for 45 minutes at 37° C. Dye was removed, 20 μL of assay buffer was added, and the plate was incubated for 5 minutes at room temperature.
Ca^2+ flux was measured using the Functional Drug Screening System (FDSS7000, Hamamatsu, Japan). After establishment of a fluorescence baseline for about 3 seconds, the compounds of the present invention were added to the cells, and the response in cells was measured. 2.3 minutes later an EC20 concentration of the mGluR5 receptor agonist glutamate was added to the cells, and the response of the cells was measured for 1.9 minutes; an EC80 concentration of agonist was added and readings taken for an additional 1.7 minutes. All test compounds were dissolved and diluted to a concentration of 10 mM in 100% DMSO. Compounds were then serially diluted 1:3 in DMSO into 10 point concentration response curves, transferred to daughter plates, and further diluted into assay buffer to a 2× stock. Calcium fluorescence measures were recorded as fold over basal fluorescence; raw data was then normalized to the maximal response to glutamate. Antagonism of the agonist response of the mGluR5 receptor in the present invention was observed as a decrease in response to nearly maximal concentrations of glutamate in the presence of compound compared to the response to glutamate in the absence of compound.
The raw data file containing all time points was used as the data source in the analysis template. This was saved by the FDSS as a tab-delimited text file. Data were normalized using a static ratio function (F/F0) for each measurement of the total 360 values per well divided by each well's initial value. Data were then reduced to peak amplitudes (Max−Initial Min) using a time range that starts approximately 3 seconds prior to the glutamate EC20/EC80 addition and continues for approximately 90-120 seconds. This is sufficient time to capture the peak amplitude of the cellular calcium response. Individual amplitudes were expressed as % EMax by multiplying each amplitude by 100 and then dividing the product by the mean of the amplitudes derived from the glutamate ECMax-treated wells. IC50 values for test compounds were generated by fitting the normalized values versus the log of the test compound concentration (in mol/L) using a 4 parameter logistic equation where none of the parameters were fixed. Each of the three values collected at each concentration of test compound were weighted evenly.
For NAMs with a CRC that plateaus above 10% Glu Max, the IC50 values are reported, the compound is designated a “partial NAM” and the % Glu Max is reported. […] Compounds without measurable activity are designated as “>30,000 nM” since the top concentration of compound tested in the assay is 30 µM. Exemplary data are provided in Tables 1 and 2 below.
Table 1 below lists specific compounds, experimentally determined molecular mass, and mGluR5 activity determined in a cell-based assay. The mGluR5 activity was determined using the metabotropic glutamate receptor activity assays in human embryonic kidney cells as described herein, wherein the human embryonic kidney cells were transfected with rat mGluR5. The mGluR5 activity data for some compounds are shown as the average of at least three experiments with the standard error in these cases. […]

T1 sequence (P31424 21-1203): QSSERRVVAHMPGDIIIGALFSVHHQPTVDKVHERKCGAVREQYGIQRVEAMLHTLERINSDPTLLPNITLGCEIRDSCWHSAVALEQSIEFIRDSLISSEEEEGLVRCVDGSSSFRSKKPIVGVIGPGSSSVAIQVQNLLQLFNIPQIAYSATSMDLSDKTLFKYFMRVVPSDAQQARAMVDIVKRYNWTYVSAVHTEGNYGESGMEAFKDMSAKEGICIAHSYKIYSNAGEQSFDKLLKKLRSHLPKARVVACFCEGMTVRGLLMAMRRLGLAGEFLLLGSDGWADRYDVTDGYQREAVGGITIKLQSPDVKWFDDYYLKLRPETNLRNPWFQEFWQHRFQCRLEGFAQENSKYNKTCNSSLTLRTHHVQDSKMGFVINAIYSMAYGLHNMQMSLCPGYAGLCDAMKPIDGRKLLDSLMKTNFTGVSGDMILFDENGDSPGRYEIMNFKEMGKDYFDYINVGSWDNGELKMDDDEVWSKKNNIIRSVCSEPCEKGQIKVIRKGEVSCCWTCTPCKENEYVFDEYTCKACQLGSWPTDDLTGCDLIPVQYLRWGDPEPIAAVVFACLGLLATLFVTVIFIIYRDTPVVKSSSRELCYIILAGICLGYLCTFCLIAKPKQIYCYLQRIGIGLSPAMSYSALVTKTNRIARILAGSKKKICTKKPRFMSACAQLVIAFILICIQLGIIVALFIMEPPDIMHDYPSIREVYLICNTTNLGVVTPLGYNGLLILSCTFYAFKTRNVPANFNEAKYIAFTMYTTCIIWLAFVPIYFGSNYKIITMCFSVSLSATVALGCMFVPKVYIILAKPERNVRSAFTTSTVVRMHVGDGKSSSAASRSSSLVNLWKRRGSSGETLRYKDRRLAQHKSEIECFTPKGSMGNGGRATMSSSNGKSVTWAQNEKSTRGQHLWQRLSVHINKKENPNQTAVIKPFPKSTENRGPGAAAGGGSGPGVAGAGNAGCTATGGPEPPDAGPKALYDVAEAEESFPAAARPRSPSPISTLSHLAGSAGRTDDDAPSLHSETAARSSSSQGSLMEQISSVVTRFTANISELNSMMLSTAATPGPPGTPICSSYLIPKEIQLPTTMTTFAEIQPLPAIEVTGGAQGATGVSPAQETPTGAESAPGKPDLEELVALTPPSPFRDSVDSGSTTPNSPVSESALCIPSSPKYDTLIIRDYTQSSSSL

Point of comparison: `Cc1cc(OC2C[S+]([O-])C2)cc(C(=O)Nc2ccc(F)cn2)n1` (centres unmarked), IC50 533 nM. Against it:
- CO[C@H](C)COc1cc(C)nc(C(=O)Nc2ccc(F)cn2)c1 — within 1.5-fold, 718 nM
- CO[C@@H](C)COc1cc(C)nc(C(=O)Nc2ccccn2)c1 — 4.1-fold higher, 2210 nM
- CO[C@@H](C)COc1cc(C)nc(C(=O)Nc2nc(C)cs2)c1 — 2-fold higher, 1050 nM
- Cc1cc(O[C@H]2CO[C@H](C)C2)cc(C(=O)Nc2nc(CF)cs2)n1 — 3-fold lower, 180 nM
- Cc1cc(O[C@H]2CO[C@H](C)C2)cc(C(=O)Nc2nc(C(F)F)cs2)n1 — 1.7-fold higher, 902 nM
- Cc1cc(O[C@H]2CO[C@H](C)C2)cc(C(=O)Nc2nc(C(F)(F)F)cs2)n1 — 9.8-fold higher, 5200 nM
- Cc1cc(O[C@H]2CO[C@H](C)C2)cc(C(=O)Nc2nc(C3CC3)cs2)n1 — 1.7-fold higher, 899 nM
- Cc1cc(O[C@@H]2CCOC2)cc(C(=O)Nc2nc(C)c(F)s2)n1 — 3.1-fold lower, 171 nM
- Cc1cc(OC2CSC2)cc(C(=O)Nc2ccc(F)cn2)n1 — 14-fold lower, 37 nM
- Cc1cc(OC2CS(=O)(=O)C2)cc(C(=O)Nc2ccc(F)cn2)n1 — within 1.5-fold, 742 nM
- CC(=O)N1CC(Oc2cc(C)nc(C(=O)Nc3nc(C)cs3)c2)C1 — within 1.5-fold, 388 nM
- Cc1cc(OC2CN(C(=O)CC(C)C)C2)cc(C(=O)Nc2nc(C)cs2)n1 — 3.1-fold higher, 1670 nM
- Cc1cc(O[C@H]2CO[C@H](C)C2)cc(C(=O)Nc2nc(C)c(F)s2)n1 — 2.4-fold higher, 1290 nM
- Cc1cc(OC2CSC2)cc(C(=O)Nc2nc(C)cs2)n1 — 17-fold lower, 31 nM
- Cc1cc(OC2C[S+]([O-])C2)cc(C(=O)Nc2nc(C)cs2)n1 (centres unmarked) — 3-fold lower, 180 nM
- Cc1cc(OC2CS(=O)(=O)C2)cc(C(=O)Nc2nc(C)cs2)n1 — within 1.5-fold, 392 nM
- CCC(=O)N1CC(Oc2cc(C)nc(C(=O)Nc3nc(C)cs3)c2)C1 — within 1.5-fold, 611 nM
- CCC(=O)N1CC(Oc2cc(C)nc(C(=O)Nc3ccc(F)cn3)c2)C1 — 6.4-fold higher, 3400 nM
- Cc1cc(OC2CN(C(=O)CC(C)C)C2)cc(C(=O)Nc2ccc(F)cn2)n1 — 8.1-fold higher, 4330 nM
- CCOC(=O)N1CC(Oc2cc(C)nc(C(=O)Nc3nc(C)cs3)c2)C1 — 1.6-fold higher, 862 nM
- COC(=O)N1CC(Oc2cc(C)nc(C(=O)Nc3ccc(F)cn3)c2)C1 — 2.9-fold higher, 1570 nM
- Cc1cc(OC2CN(C(=O)OC(C)C)C2)cc(C(=O)Nc2ccc(F)cn2)n1 — 7.7-fold higher, 4100 nM
- CCCCOC(=O)N1CC(Oc2cc(C)nc(C(=O)Nc3ccc(F)cn3)c2)C1 — 21-fold higher, 11200 nM
- Cc1cc(OC2CN(S(C)(=O)=O)C2)cc(C(=O)Nc2nc(C)cs2)n1 — within 1.5-fold, 504 nM
- COC(=O)N1CC(Oc2cc(C)nc(C(=O)Nc3nc(C)cs3)c2)C1 — within 1.5-fold, 686 nM
- Cc1cc(OC2CN(C(=O)OC(C)C)C2)cc(C(=O)Nc2nc(C)cs2)n1 — 4.7-fold higher, 2510 nM
- CCOC(=O)N1CC(Oc2cc(C)nc(C(=O)Nc3ccc(F)cn3)c2)C1 — 6.3-fold higher, 3340 nM
- CCCOC(=O)N1CC(Oc2cc(C)nc(C(=O)Nc3ccc(F)cn3)c2)C1 — higher, > 10000 nM
- Cc1cc(OC2CN(C(=O)OCC(C)C)C2)cc(C(=O)Nc2ccc(F)cn2)n1 — higher, > 30000 nM
- CCS(=O)(=O)N1CC(Oc2cc(C)nc(C(=O)Nc3nc(C)cs3)c2)C1 — 2.4-fold higher, 1270 nM
- CCCS(=O)(=O)N1CC(Oc2cc(C)nc(C(=O)Nc3nc(C)cs3)c2)C1 — within 1.5-fold, 789 nM
- Cc1cc(OC2CN(S(=O)(=O)CC(C)C)C2)cc(C(=O)Nc2nc(C)cs2)n1 — higher, > 10000 nM
- CCCS(=O)(=O)N1CC(Oc2cc(C)nc(C(=O)Nc3ccc(F)cn3)c2)C1 — higher, > 10000 nM
- Cc1cc(OC2CN(S(=O)(=O)CC(C)C)C2)cc(C(=O)Nc2ccc(F)cn2)n1 — higher, > 30000 nM
- Cc1cc(OC2CN(C(=O)N(C)C)C2)cc(C(=O)Nc2ccc(F)cn2)n1 — higher, > 10000 nM
- Cc1cc(OC2CN(S(=O)(=O)C(C)C)C2)cc(C(=O)Nc2nc(C)cs2)n1 — 6.8-fold higher, 3620 nM
- CCS(=O)(=O)N1CC(Oc2cc(C)nc(C(=O)Nc3ccc(F)cn3)c2)C1 — higher, > 10000 nM
- Cc1cc(OC2CN(S(=O)(=O)C(C)C)C2)cc(C(=O)Nc2ccc(F)cn2)n1 — 7.5-fold higher, 3980 nM
- Cc1cc(OC2CN(C(=O)N(C)C)C2)cc(C(=O)Nc2nc(C)cs2)n1 — higher, > 10000 nM

same assay, conditions: rat mGluR5; CRC plateaus above 10% Glu Max

`Cc1cc(OC2CN(C(=O)OC(C)C)C2)cc(C(=O)Nc2ccc(F)cn2)n1` was tested, and the NAM designation was “Partial NAM”.
In the case of `Cc1cc(OC2CN(S(=O)(=O)C(C)C)C2)cc(C(=O)Nc2ccc(F)cn2)n1`, the NAM designation is reported as “Partial NAM”.

same assay, conditions: rat mGluR5; average Glu Max at 30 μM; CRC does not hit a plateau

Point of comparison: `Cc1cc(OC2CN(C(=O)N(C)C)C2)cc(C(=O)Nc2ccc(F)cn2)n1`, “% Glu Max at single concentration” value 69%. Against it:
- CCCOC(=O)N1CC(Oc2cc(C)nc(C(=O)Nc3ccc(F)cn3)c2)C1 — lower, 37%
- Cc1cc(OC2CN(S(=O)(=O)CC(C)C)C2)cc(C(=O)Nc2nc(C)cs2)n1 — lower, 59%
- CCCS(=O)(=O)N1CC(Oc2cc(C)nc(C(=O)Nc3ccc(F)cn3)c2)C1 — lower, 53%
- CCS(=O)(=O)N1CC(Oc2cc(C)nc(C(=O)Nc3ccc(F)cn3)c2)C1 — lower, 62%
- Cc1cc(OC2CN(C(=O)N(C)C)C2)cc(C(=O)Nc2nc(C)cs2)n1 — lower, 31%

same assay, conditions: rat mGluR5; response in presence of compound as percentage of maximal glutamate response; CRC plateaus above 10%

Point of comparison: `Cc1cc(OC2CN(S(=O)(=O)C(C)C)C2)cc(C(=O)Nc2ccc(F)cn2)n1`, “% Glu Max (partial NAM, plateau of CRC)” value 58%. Against it:
- Cc1cc(OC2CN(C(=O)OC(C)C)C2)cc(C(=O)Nc2ccc(F)cn2)n1 — lower, 42%
